According to ChEMBL document CHEMBL1124264, “Predictive structure-activity relationships in a series of pyranoquinoline derivatives. A new primate model for the identification of antiallergic activity” (J Med Chem, 1988):

Tests used:
[1] = Biological activity expressed as the Log potency ratio (PR) of the compound relative to a standard compound 63; format: ADME; settings: octanol/water
[2] = test system: Monkey; experiment: In vitro inhibition of anti-IgE induced histamine release from bronchoalveolar mast cells of monkey infected with Ascaris suum; format: functional, Cercopithecidae, Lung
[3] = log PR value (eq 2); format: ADME; settings: octanol/water
[4] = Dissociation constant (eq 2); format: physicochemical; settings: read-out: pK3
[5] = log PR value using spectrophotometric method; format: ADME; settings: octanol/water
[6] = Dissociation constant using spectrophotometric method; format: physicochemical
[7] = Dissociation constant (pKa1) using partition method; format: physicochemical; settings: read-out: pKa1
[8] = Dissociation constant (pKa2) using partition method; format: physicochemical; settings: read-out: pKa2

Compound | Log PR [1] | Potency ratio [2] | other results
CCCc1c2nc(C(=O)[O-])cc(C3OCCCO3)c2cc2c(=O)cc(C(=O)[O-])oc12.[Na+].[Na+] | -0.75 | 0.179 | 
CCCc1c2nc(C(=O)[O-])cc(C(F)(F)C(F)(F)F)c2cc2c(=O)cc(C(=O)[O-])oc12.[Na+].[Na+] | 0.45 | 2.83 | 
CCCc1c2nc(C(=O)[O-])cc(O)c2cc2c(=O)cc(C(=O)[O-])oc12.[Na+].[Na+] | 0.37 | 2.366 | 
CCCc1c2nc(C(=O)[O-])cc(S(=O)Oc3ccccc3)c2cc2c(=O)cc(C(=O)[O-])oc12.[Na+].[Na+] (stereo not drawn) | -0.27 | 0.536 | 
CCCc1c2nc(C(=O)[O-])cc(C(F)F)c2cc2c(=O)cc(C(=O)[O-])oc12.[Na+].[Na+] | -0.23 | 0.586 | 
CCCc1c2nc(C(=O)[O-])cc(C=O)c2cc2c(=O)cc(C(=O)[O-])oc12.[Na+].[Na+] | -0.63 | 0.237 | 
CCCc1c2nc(C(=O)[O-])cc(NC(=O)Nc3ccccc3)c2cc2c(=O)cc(C(=O)[O-])oc12.[Na+].[Na+] | -0.05 | 0.895 | 
CCCc1c2nc(C(=O)[O-])cc(NC(C)=O)c2cc2c(=O)cc(C(=O)[O-])oc12.[Na+].[Na+] | -1.19 | 0.065 | 
CCCc1c2nc(C(=O)[O-])ccc2cc2c(=O)cc(C(=O)[O-])oc12.[Na+].[Na+] | -1 | 0.1 | 
CCCc1c2nc(C(=O)[O-])cc(C(F)(F)C(F)(F)C(F)(F)F)c2cc2c(=O)cc(C(=O)[O-])oc12.[Na+].[Na+] | 0.57 | 3.725 | 
CCCc1c2nc(C(=O)[O-])cc(Sc3ccccc3)c2cc2c(=O)cc(C(=O)[O-])oc12.[Na+].[Na+] | 0.88 | 7.54 | 
CCCc1c2nc(C(=O)[O-])cc(/C=C/c3ccccc3)c2cc2c(=O)cc(C(=O)[O-])oc12.[Na+].[Na+] | 0.8 | 6.326 | 
CCCc1c2nc(C(=O)[O-])cc(N3CCCC3)c2cc2c(=O)cc(C(=O)[O-])oc12.[Na+].[Na+] | 0.14 | 0.017 | Log PR [3]: -1.25; pKa [4]: 8.75
CCCc1c2nc(C(=O)[O-])cc(-n3cccc3)c2cc2c(=O)cc(C(=O)[O-])oc12.[Na+].[Na+] | 0.43 | 2.686 | 
CCCc1c2nc(C(=O)[O-])cc(Oc3ccccc3)c2cc2c(=O)cc(C(=O)[O-])oc12.[Na+].[Na+] | 0.51 | 3.244 | 
CCCc1c2nc(C(=O)[O-])cc(Nc3ccccc3)c2cc2c(=O)cc(C(=O)[O-])oc12.[Na+].[Na+] | -0.15 | 0.706 | Log PR [5]: 0.39; pKa [6]: 7.78

Compound | Log PR [1] | Potency ratio [2] | other results
CCCc1c2nc(C(=O)[O-])cc(/C=N/NC(=O)c3ccccc3)c2cc2c(=O)cc(C(=O)[O-])oc12.[Na+].[Na+] | -0.13 | 0.748 | 
CCCc1c2nc(C(=O)[O-])cc(C(F)(F)F)c2cc2c(=O)cc(C(=O)[O-])oc12.[Na+].[Na+] | 0.4 | 2.53 | 
CCCc1c2nc(C(=O)[O-])cc(Br)c2cc2c(=O)cc(C(=O)[O-])oc12.[Na+].[Na+] | 0.02 | 1.04 | 
CCCc1c2nc(C(=O)[O-])cc(Cl)c2cc2c(=O)cc(C(=O)[O-])oc12.[Na+].[Na+] | 0.04 | 1.096 | 
CCCc1c2nc(C(=O)[O-])cc(C(=O)[O-])c2cc2c(=O)cc(C(=O)[O-])oc12.[Na+].[Na+].[Na+] | -1.27 | 0.053 | 
CCCc1c2nc(C(=O)[O-])cc(NCC)c2cc2c(=O)cc(C(=O)[O-])oc12.[Na+].[Na+] | -2.15 | 0.007 | Log PR [5]: -0.89; pKa [6]: 8.64
CCCc1c2nc(C(=O)[O-])cc(OCC)c2cc2c(=O)cc(C(=O)[O-])oc12.[Na+].[Na+] | -0.4 | 0.4 | 
CCCCCNc1cc(C(=O)[O-])nc2c(CCC)c3oc(C(=O)[O-])cc(=O)c3cc12.[Na+].[Na+] | -1.27 | 0.053 | Log PR [5]: 0.05; pKa [6]: 8.7
CCCc1c2nc(C(=O)[O-])cc(SCC)c2cc2c(=O)cc(C(=O)[O-])oc12.[Na+].[Na+] | 0.35 | 2.249 | 
CCCc1c2nc(C(=O)[O-])cc(C)c2cc2c(=O)cc(C(=O)[O-])oc12.[Na+].[Na+] | -0.42 | 0.379 | 
CCCc1c2nc(C(=O)[O-])cc(N)c2cc2c(=O)cc(C(=O)[O-])oc12.[Na+].[Na+] | 0.12 | 0.057 | Log PR [3]: -1.25; pKa [4]: 8.75
CCCc1c2nc(C(=O)[O-])cc(N(C)C)c2cc2c(=O)cc(C(=O)[O-])oc12.[Na+].[Na+] | -0.29 | 0.063 | Log PR [3]: -1.2; pKa [4]: 8.26
CCCc1c2nc(C(=O)[O-])cc(C#N)c2cc2c(=O)cc(C(=O)[O-])oc12.[Na+].[Na+] | 0.07 | 1.161 | 
CCCc1c2nc(C(=O)[O-])cc(NC)c2cc2c(=O)cc(C(=O)[O-])oc12.[Na+].[Na+] | -0.66 | 0.012 | Log PR [3]: -1.91; pKa [4]: 8.63; pKa [7]: 0.5; pKa [8]: 1.62
CCCc1c2nc(C(=O)[O-])cc(N(C)C(C)=O)c2cc2c(=O)cc(C(=O)[O-])oc12.[Na+].[Na+] | -2.05 | 0.009 | 
